Reference: patent publication US20020115212A1, “Enchanced PKR expression and cytokine production” (priority 2000, published 2002)

How the values were obtained:
[1] = test system: IFN-alpha production in Namalwa PKR++41.027 and WT Namalwa cells; assay: IFN-alpha production (ELISA) after PMA priming and poly I:C induction; assay type: cell-based, human; details: 20 nM PMA 24 hr, 200 μg/mL poly I:C plus 10 μg/mL DEAE Dextran, 72 hr
Protocol: Cells from individual subclones of Namalwa PKR++41.027 cells and WT Namalwa cells were pretreated with 20 nM phorbol myristate acetate at a cell density 5.0×10^5 cells/ml, in 6 well plates for 24 hrs followed by treatment with 500 HAU/ml Sendai virus or 200 μg/mL poly I:C plus 10 μg/mL DEAE Dextran for an additional 72 hr to induce IFN expression. Culture supernatants from the Sendai virus-treated cells were removed at 24 hr and 48 hr post-induction and supernatants from the Poly I:C treated cells were removed at 72 hr. IFN-alpha production was measured in these cell culture supernates using ELISA (Human Interferon Alpha Multi-Species ELISA Kit obtained from PBL).
FIG. 5 illustrates IFN-alpha production was enhanced following both Sendai virus and PolyI:C induction in Namalwa PKR++41.027 cells relative to IFN-alpha production by wild type Namalwa cells as shown in FIG. 5.

[2] = test system: IFN-alpha production in Namalwa PKR++41.027 and WT Namalwa cells; assay: IFN-alpha production (ELISA) after PMA priming and Sendai virus or poly I:C induction in the presence of 2-aminopurine; assay type: cell-based, human; details: 5 mM 2-aminopurine, 20 nM PMA 24 hr, Namalwa PKR++41.027 and WT cells
Protocol: Parallel experiments were performed on duplicate cultures of the individual subclones of Namalwa PKR++41.027 cells and WT Namalwa cells. These cultures were also pretreated with 20 nM phorbol myristate acetate at a cell density 5.0×10^5 cells/ml, in 6 well plates for 24 hr followed by treatment with 500 HAU/ml Sendai virus or poly I:C (200 μg/ml) plus 10 μg/ml DEAE Dextran. In addition these cultures were also treated with the PKR inhibitor 5 mM 2-aminopurine (2AP; obtained from Aldrich Chemical Company). Culture supernatants from the Sendai virus-induced cells were removed at 24 hr, post-induction and culture supernatants from the Poly I:C-induced cells were removed at 72 hr and evaluated for IFN alpha production using ELISA (PBL Catalogue No. 41105 Human Interferon Alpha Multi-Species ELISA Kit).

[3] = test system: proinflammatory cytokines; assay: Induction of other proinflammatory cytokines by virus or poly I:C in the presence of 2-aminopurine; assay type: cell-based; details: results not shown
PKR = PKR (Homo sapiens, UniProt P19525); details: stated as known; cited from earlier work
PKR, sequence (P19525 whole entry): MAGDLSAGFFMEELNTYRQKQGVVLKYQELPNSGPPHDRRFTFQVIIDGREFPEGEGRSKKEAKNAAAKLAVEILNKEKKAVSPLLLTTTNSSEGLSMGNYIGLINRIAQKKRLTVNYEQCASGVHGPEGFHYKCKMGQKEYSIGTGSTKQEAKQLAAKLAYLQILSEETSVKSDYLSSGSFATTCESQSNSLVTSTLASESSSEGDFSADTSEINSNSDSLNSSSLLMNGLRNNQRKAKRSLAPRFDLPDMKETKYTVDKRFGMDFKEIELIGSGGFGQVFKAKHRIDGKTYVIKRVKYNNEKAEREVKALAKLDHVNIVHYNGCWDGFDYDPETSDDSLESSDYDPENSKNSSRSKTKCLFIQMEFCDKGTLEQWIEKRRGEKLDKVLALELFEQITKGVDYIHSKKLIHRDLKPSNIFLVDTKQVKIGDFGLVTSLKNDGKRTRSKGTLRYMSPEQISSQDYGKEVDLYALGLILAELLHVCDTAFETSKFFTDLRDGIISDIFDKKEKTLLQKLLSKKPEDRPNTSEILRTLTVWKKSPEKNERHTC

Compound: poly I:C
- IFN-alpha induction in Namalwa PKR++41.027 cells [1]: capable of inducing IFN
- IFN-alpha induction in parental wild type Namalwa cells [1]: absence of detectable IFN-alpha induction

Compound: Nc1ncc2[nH]cnc2n1 [2-aminopurine]
- IFN-alpha production following Sendai virus induction ([2]; 500 HAU/ml Sendai virus, supernatant at 24 hr): decreased
- IFN-alpha production following poly I:C induction ([2]; poly I:C 200 μg/ml plus 10 μg/ml DEAE Dextran, supernatant at 72 hr): decreased
- induction of other proinflammatory cytokines by virus or poly I:C [3]: inhibits
- PKR kinase activity (PKR): known inhibitor
